Data set [1] relates to MCF7 (human breast adenocarcinoma) cells. The data set is described as follows: MTT cytotoxicity assay, MCF7. It counts as cell-based. The settings on record: Homo sapiens, MCF7, mean ± SD of triplicate. On the procedure: (§1) The cytotoxicity of the synthesised quinazolin-4(3H)-ones was evaluated by MTT assay, as previously described. Two cancer cell lines, MCF7 (human breast adenocarcinoma) and A2780 (human ovary adenocarcinoma), were used in this study, which were obtained from the ATCC (Rockville, MD, USA). […] Additionally, compounds were prepared at the same medium to obtain serial dilutions (50, 25, […] and 0.1 µM). […] The media were aspirated, and the formazan crystals were solubilised by adding 150 µL DMSO. Absorbance was read on a multi-plate reader (BioRad) at […]. […] The data were obtained from triplicates and analysed using statistical software.

The subject of data set [2] is A2780 (human ovary adenocarcinoma) cells. The data set is described as follows: MTT cytotoxicity assay, A2780. In kind it is cell-based. The following applies: Homo sapiens, A2780, mean ± SD of triplicate. On the procedure: as §1
For data set [3], the target named is T1, CDK2/CyclinA2 (Homo sapiens, UniProt P24941).
T1 construct: purchased #79599
Description: CDK2 Assay Kit, Kinase-Glo MAX luminescence. In kind it is biochemical. The following applies: one experimental data. How it is done:
The CDK2 Assay Kit is designed to measure CDK2/CyclinA2 activity for screening and profiling applications, using Kinase-Glo® MAX as a detection reagent. The CDK2 Assay Kit comes in a convenient 96-well format, with enough purified recombinant CDK2/CyclinA2 enzyme, CDK substrate peptide, ATP and kinase assay buffer for 100 enzyme reactions. […] […] The compounds were diluted in 10% DMSO and 5 μl of the dilution was added to a 50 μl reaction so that the final concentration of DMSO was 1% in all of the reactions. All of the enzymatic reactions were conducted at 30 °C for 40 min. The 50 μl reaction mixture contained 40 mM Tris, pH 7.4, 10 mM MgCl2, 0.1 mg/mL BSA, 1 mM DTT, 10 mM ATP, Kinase substrate and the enzyme (CDK2/CyclinA2). After the enzymatic reaction, 50 μl of Kinase-Glo® MAX Luminescence kinase assay solution was added to each reaction and the plates were incubated for 5 min at room temperature. Luminescence signal was measured using a Bio Tek Synergy 2 microplate reader.
Figure S1. Calculation of the IC20 Values of Protein Kinase Enzyme CDK2 for 2f
* All the kinase IC20 (µM) were calculated according to the above equations.
(1 picture or pasted object on this page, not shown here)

A further data set concerns the target T2, HER2 (Homo sapiens, UniProt P04626).
T2 construct: purchased #40721
The data set is described as follows: HER2 kinase assay kit, Kinase-Glo MAX luminescence. It counts as biochemical. How it is done: (§2) The HER2/EGFR/VEGFR2 assay kit is designed to measure HER2/EGFR/VEGFR-2 inhibitory activity for screening and profiling applications, using Kinase-Glo® MAX as a detection reagent. The HER2/EGFR/VEGFR2 assay kit comes in a convenient 96-well format, with enough purified recombinant HER2/EGFR/VEGFR2 enzyme, HER2/EGFR/VEGFR2 substrate, ATP and kinase buffer 1 for 100 enzyme reactions. […] […] The quinazolin-4(3H)-ones were diluted in 10% DMSO and 5 μl of the dilution was added to a 50 μl reaction so that the final concentration of DMSO was 1% in all of the reactions. All of the enzymatic reactions were conducted at 30 °C for 40 min. The 50 μl reaction mixture contained 40 mM Tris, pH 7.4, 10 mM MgCl2, 0.1 mg/mL BSA, 1 mM DTT, 10 mM ATP, kinase substrate and the enzyme HER2 / EGFR / VEGFR2. After the enzymatic reaction, 50 μl of Kinase-Glo® MAX luminescence kinase assay solution was added to each reaction and the plates were incubated for 5 min at room temperature. Luminescence signal was measured using a Bio Tek Synergy 2 microplate reader (For detail enzyme assay protocol and the results, please see supplementary data).

For a further data set, the target named is T3, EGFR (Homo sapiens, UniProt P00533).
T3 construct: purchased #40321
Description: EGFR kinase assay kit, Kinase-Glo MAX luminescence. It counts as biochemical. How it is done: as §2

A further data set addresses T4, VEGFR2 (Homo sapiens, UniProt P35968).
T4 construct: purchased #40325
Description: VEGFR2 kinase assay kit, Kinase-Glo MAX luminescence. In kind it is biochemical. How it is done: as §2

Data set [4] addresses T1, CDK2/CyclinA2. The data set is described as follows: CDK2 Assay Kit, Kinase-Glo MAX luminescence. It counts as biochemical. The settings on record: mean ± SD of triplicate.

Our source for the IC50, inhibition and melting point values is PMC8462848, “Quinazolin-4(3H)-one based potential multiple tyrosine kinase inhibitors with excellent cytotoxicity” (Journal of Enzyme Inhibition and Medicinal Chemistry, 2021).

T3 sequence (P00533 25-1210): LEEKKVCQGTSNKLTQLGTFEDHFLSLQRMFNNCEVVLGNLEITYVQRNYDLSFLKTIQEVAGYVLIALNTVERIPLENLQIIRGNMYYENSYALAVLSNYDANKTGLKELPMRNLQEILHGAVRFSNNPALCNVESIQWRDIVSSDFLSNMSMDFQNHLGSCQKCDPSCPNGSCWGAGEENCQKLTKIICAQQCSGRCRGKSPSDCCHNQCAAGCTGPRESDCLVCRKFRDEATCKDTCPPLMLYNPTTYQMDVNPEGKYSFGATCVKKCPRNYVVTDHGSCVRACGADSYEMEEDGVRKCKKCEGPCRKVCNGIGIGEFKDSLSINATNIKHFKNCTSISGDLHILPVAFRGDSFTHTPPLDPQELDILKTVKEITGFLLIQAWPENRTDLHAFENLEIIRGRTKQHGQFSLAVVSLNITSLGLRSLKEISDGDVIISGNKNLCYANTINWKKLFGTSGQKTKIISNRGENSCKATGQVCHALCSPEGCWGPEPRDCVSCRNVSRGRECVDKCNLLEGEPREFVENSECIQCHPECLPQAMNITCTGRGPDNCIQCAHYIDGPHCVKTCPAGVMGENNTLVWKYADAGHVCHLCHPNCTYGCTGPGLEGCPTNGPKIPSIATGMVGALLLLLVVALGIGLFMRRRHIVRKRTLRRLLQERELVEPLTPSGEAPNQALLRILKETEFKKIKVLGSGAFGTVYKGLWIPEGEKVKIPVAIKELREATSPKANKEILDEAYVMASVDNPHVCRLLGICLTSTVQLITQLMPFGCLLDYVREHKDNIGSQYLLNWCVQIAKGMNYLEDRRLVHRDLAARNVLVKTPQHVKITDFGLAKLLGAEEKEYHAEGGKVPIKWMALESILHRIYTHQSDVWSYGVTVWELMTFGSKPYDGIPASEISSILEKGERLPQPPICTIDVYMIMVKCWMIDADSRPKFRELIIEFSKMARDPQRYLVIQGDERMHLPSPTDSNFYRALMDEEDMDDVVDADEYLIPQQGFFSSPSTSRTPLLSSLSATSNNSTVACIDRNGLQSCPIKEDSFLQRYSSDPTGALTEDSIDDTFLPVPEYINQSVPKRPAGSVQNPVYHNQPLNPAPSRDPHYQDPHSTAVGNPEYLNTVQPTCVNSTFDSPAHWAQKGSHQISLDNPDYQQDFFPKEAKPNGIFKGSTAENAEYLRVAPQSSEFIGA
T2 sequence (P04626 23-1255): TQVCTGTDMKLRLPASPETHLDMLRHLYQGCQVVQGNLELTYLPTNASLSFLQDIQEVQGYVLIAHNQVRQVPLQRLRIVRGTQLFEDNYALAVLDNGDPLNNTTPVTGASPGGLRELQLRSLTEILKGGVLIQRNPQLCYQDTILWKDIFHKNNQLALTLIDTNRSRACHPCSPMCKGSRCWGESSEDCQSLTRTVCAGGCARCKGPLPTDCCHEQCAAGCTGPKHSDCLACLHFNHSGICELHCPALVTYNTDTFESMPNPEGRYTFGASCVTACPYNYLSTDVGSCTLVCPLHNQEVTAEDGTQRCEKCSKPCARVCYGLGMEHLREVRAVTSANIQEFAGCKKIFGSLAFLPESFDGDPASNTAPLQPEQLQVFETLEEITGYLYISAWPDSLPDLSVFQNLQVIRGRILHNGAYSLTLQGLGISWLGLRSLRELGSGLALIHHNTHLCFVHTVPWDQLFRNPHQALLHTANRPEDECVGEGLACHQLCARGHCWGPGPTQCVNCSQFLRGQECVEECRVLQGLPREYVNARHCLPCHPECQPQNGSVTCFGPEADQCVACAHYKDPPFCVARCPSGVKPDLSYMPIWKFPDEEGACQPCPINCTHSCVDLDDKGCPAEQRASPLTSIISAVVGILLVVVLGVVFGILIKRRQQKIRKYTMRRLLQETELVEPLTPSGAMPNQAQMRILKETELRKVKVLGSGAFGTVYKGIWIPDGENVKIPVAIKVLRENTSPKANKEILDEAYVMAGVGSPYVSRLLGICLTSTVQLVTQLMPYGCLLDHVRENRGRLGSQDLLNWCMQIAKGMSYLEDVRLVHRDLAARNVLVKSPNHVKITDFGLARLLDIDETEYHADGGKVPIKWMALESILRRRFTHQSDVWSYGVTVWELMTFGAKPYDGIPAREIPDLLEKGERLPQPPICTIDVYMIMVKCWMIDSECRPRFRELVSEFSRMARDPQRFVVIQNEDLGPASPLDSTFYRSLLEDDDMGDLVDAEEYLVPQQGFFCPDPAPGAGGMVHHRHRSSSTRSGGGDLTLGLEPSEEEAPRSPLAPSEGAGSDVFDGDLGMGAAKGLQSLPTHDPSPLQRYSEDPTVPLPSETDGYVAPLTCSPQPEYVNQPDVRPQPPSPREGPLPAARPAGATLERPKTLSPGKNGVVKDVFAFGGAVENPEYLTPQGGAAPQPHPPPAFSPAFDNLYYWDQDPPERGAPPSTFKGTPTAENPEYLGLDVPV
T4 sequence (P35968 20-1356): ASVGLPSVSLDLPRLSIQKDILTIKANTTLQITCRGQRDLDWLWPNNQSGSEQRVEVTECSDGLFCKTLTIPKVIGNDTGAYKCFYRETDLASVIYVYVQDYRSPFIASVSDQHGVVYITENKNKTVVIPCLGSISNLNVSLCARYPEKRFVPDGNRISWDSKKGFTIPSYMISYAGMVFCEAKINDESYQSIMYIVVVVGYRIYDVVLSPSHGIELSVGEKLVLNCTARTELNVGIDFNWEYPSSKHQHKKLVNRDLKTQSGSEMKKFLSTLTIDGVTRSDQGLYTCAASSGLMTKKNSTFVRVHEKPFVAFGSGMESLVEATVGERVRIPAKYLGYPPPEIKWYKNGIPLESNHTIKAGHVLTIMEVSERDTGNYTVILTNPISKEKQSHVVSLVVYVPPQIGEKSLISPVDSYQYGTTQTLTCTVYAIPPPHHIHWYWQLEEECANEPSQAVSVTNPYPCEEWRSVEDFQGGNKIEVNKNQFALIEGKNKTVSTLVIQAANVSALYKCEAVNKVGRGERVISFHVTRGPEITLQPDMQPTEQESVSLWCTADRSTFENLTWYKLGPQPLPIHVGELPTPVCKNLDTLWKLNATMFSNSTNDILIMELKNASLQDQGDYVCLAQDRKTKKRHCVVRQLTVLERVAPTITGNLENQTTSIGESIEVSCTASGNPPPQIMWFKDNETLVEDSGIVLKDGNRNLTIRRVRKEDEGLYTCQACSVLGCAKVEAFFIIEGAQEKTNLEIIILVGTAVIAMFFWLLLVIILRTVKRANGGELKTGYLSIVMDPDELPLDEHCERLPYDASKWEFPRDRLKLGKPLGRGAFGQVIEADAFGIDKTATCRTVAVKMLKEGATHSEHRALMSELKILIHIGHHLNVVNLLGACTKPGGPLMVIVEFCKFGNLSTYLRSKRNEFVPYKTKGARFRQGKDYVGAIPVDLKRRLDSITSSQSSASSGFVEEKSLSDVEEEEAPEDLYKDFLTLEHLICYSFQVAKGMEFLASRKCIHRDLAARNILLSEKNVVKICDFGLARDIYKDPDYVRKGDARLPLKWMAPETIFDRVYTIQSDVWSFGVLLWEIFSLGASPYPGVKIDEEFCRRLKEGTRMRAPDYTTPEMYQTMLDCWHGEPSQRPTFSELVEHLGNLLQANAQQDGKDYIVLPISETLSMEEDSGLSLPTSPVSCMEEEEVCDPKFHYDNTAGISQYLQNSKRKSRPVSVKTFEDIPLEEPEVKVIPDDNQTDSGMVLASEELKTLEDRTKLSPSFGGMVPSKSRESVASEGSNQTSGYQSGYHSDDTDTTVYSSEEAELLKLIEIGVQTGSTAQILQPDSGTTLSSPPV

For the compound `Cc1cc(Cl)cc2c(=O)n(Cc3ccccc3)c(SCC(=O)NN)nc12` [3j], the melting point is 216 to 220 °C. It took 200 ± 20 nM to reach half-maximal inhibition in data set [1] (IC50). Further, the IC50 in data set [2] was 220 ± 30 nM. The inhibition at 0.01 µM on CDK2/CyclinA2 [3] (0.01 µM) came out at 8.13%. For the same compound, the inhibition at 0.1 µM at CDK2/CyclinA2 [3] (0.1 µM) turned out to be 42.8%. Also, the inhibition at 1 µM on CDK2/CyclinA2 [3] (1 µM) amounted to 38.4%. Moreover, the inhibition at 10 µM at CDK2/CyclinA2 [3] (10 µM) amounted to 84%. Also, the inhibition at 0.01 µM on HER2 (0.01 µM, one experimental data) is 2.33%. The inhibition at 0.1 µM at HER2 (0.1 µM, one experimental data) turned out to be 39.5%. For the same compound, the inhibition at 1 µM at HER2 (1 µM, one experimental data) amounted to 72%. Moreover, the inhibition at 10 µM on HER2 (10 µM, one experimental data) is 92.2%. The IC50 on HER2 (mean ± SD of triplicate) came out at 222 ± 12 nM. In addition, on EGFR (0.01 µM, one experimental data), the inhibition at 0.01 µM turned out to be 18.7%. In addition, the inhibition at 0.1 µM on EGFR (0.1 µM, one experimental data) was 48.8%. The inhibition at 1 µM at EGFR (1 µM, one experimental data) was found to be 81%. Further, on EGFR (10 µM, one experimental data), the inhibition at 10 µM was found to be 89.9%. Besides, the IC50 at EGFR (mean ± SD of triplicate) amounted to 371 ± 14 nM. Also, the inhibition at 0.01 µM on VEGFR2 (0.01 µM, one experimental data, read-out: % Inhibition VEGFR-2) was 1.98%. Moreover, the inhibition at 0.1 µM at VEGFR2 (0.1 µM, one experimental data, read-out: % Inhibition VEGFR-2) came to 22.3%. Further, the inhibition at 1 µM at VEGFR2 (1 µM, one experimental data, read-out: % Inhibition VEGFR-2) was found to be 41.1%. The inhibition at 10 µM at VEGFR2 (10 µM, one experimental data, read-out: % Inhibition VEGFR-2) was found to be 74.4%. The IC50 at VEGFR2 (mean ± SD of triplicate) was 3085 ± 16 nM. The same compound showed an IC50 at CDK2/CyclinA2 [4] of 473 ± 33 nM.
